# According to patent US9371331B2, “Modulators of methyl modifying enzymes, compositions and uses thereof” (Constellation Pharmaceuticals, Inc., priority 2012, dated 2016):
# Like-named read-outs stand apart in the source and are kept apart here.
# What was measured:
# [1] = test system: H3K27me3 mark in HeLa cells; assay: H3K27me3 Alpha Hela Assay (AlphaLISA); format: cell-based; details: 72 hrs; for EC50: Homo sapiens, read-out: H3K27me3_Alpha_HeLa_ (EC50)
# Experimental: H3K27me3 Alpha Hela Assay (AlphaLISA).
# Ten different doses of each test compound (in a series of 3-fold dilutions) were plated in duplicate 384-well tissue culture treated plates (Catalog #781080; Greiner Bio One; Monroe, N.C.). Hela cells grown in culture were trypsinized and counted using a Countess® cell counter (Catalog #C10281; Life Technologies, Grand Island, N.Y.). Cell were diluted to 67,000 cells per mL in 10% DMEM (Catalog #10569-010 Life Technologies. Grand Island, N.Y.) and 15 μL (1,000 cells) were plated into each well using the Biotek MicroFlo™ Select Dispenser (BioTek Instruments. Inc. Vermont, USA),) of the 384-well plate. Plates were incubated at 37° C./5% CO2 for 72 hrs. One of the duplicate plates was processed for HeLa assay and the other for viability.
# To the plate processed for AlphaLISA was added 5 μL per well Cell-Histone Lysis buffer (1×) (Catalog #AL009F1 Perkin Elmer; Waltham, Mass.) and the plate was incubated at RT for 30 minutes on a plate shaker with low speed (Model#4625-Q Thermo Scientific; Waltham, Mass.). Then, 10 µL per well Histone Extraction buffer (catalog #AL009F2: Perkin Elmer; Waltham, Mass.) was added and the plate further incubated at RT for 20 min on plate shaker with low speed. To each well was then added 10 μL per well of a 5× mix of anti-K27me3 acceptor beads plus Biotinylated anti-Histone H3 (C-ter) Antibody (diluted to 3 nM final) (Catalog #AL118 Perkin Elmer; Waltham, Mass.). Dilution of the acceptor beads and then anti-Histone H3 was with 1× Histone Detection buffer (Catalog #AL009F3 Perkin Elmer; Waltham, Mass.) which was produced diluted from the 10× stock provided. The plate was sealed with an aluminum plate sealer and incubated at 23° C. for 60 min. We then added 10 μL 5× solution of Streptavidin Donor beads (Catalog #6760002 Perkin Elmer; Waltham, Mass.) (20 μg/mL final in 1× Histone Detection Buffer), sealed the plate with Aluminum plate sealer and incubated at 23° C. for 30 min. The plates were then read using an EnVision-Alpha Reader (model #2104 Perkin Elmer: Waltham, Mass.).
# Data from both assays was analyzed using Assay Assistant (Constellation Pharmaceuticals In-house product) and Activity Base (IDBS Ltd. Surrey, UK) template. Data files were imported to Assay Assistant and assay conditions were specified. A unique Analysis ID was created and the data files exported to Activity Base. An analysis template was created on Activity Base to measure dose-dependent inhibition of H3K27me3 mark and cell viability respectively. Readout of DMSO wells were used to normalize the data. Resulting curves were fitted using Activity base software Model 205 (IDBS Ltd, Surrey, UK). The data was checked for quality, validated and integrated in excel format using SARview (IDBS Ltd, Surrey, UK).
# Y641N EZH2 = Y641N EZH2 (Homo sapiens, UniProt Q15910, Y641N); assay: Y641N EZH2 assay: as EZH2 assay, with reconstituted H3K27Me2 oligonucleosomes as substrate; format: biochemical
# Sequence of Y641N EZH2 (Q15910 whole entry Y641N): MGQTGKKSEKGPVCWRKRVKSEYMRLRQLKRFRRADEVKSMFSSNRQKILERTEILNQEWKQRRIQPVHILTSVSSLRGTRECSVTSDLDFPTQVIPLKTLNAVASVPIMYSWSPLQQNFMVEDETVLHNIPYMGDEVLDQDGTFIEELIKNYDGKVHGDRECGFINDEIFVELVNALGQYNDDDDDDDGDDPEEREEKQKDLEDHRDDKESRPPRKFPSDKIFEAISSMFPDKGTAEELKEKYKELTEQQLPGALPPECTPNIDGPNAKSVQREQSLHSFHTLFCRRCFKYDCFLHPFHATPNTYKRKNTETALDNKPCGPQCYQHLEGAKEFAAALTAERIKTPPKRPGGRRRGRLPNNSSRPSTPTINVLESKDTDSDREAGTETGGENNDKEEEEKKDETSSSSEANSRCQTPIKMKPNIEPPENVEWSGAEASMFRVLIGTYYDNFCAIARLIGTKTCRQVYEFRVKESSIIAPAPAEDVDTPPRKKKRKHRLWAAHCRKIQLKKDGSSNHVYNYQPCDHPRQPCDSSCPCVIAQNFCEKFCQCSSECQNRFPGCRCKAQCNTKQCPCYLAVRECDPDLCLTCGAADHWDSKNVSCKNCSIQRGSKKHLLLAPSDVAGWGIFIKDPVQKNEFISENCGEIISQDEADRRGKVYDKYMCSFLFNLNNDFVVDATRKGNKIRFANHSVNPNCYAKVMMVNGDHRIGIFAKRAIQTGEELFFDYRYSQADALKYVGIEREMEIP
# Sequence of Y641N EZH2 (O75530 whole entry partner): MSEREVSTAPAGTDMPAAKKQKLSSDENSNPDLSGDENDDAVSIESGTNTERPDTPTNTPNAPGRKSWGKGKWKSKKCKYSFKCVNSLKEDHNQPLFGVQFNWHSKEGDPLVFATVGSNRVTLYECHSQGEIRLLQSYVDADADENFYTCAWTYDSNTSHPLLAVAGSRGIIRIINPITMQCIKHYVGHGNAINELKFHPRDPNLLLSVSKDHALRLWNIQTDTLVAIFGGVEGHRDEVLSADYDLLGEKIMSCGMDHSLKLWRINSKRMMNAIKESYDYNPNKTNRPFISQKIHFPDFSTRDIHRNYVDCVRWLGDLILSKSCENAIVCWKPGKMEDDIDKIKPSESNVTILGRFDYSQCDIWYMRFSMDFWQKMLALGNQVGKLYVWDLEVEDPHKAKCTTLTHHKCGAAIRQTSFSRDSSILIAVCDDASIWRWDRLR
# Sequence of Y641N EZH2 (Q15022 whole entry partner): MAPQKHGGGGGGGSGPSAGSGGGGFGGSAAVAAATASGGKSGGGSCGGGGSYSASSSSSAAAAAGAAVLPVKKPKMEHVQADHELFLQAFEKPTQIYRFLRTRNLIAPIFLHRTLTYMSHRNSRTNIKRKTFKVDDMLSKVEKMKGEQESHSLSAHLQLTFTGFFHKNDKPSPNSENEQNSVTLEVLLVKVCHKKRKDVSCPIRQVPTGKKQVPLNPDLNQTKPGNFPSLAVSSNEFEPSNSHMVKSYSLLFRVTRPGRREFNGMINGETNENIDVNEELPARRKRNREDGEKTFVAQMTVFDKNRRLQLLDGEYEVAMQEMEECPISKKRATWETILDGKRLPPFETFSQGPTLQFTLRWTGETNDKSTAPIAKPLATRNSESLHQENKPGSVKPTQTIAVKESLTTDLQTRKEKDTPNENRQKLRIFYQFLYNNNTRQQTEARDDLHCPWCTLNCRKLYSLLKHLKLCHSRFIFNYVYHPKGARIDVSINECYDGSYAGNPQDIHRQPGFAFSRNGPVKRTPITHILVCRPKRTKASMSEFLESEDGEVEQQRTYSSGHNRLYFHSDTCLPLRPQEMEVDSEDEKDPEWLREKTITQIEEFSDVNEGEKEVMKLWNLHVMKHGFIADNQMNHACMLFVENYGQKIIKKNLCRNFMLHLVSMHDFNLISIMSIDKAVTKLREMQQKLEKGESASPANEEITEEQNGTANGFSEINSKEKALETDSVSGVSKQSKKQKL
# EZH2 (rPRC2) = EZH2 (rPRC2) (Homo sapiens, UniProt Q15910); assay: EZH2 assay: rPRC2, biotinylated oligonucleosomes, 3H SAM methyl transfer (FlashPlate scintillation); format: biochemical; details: biotinylated oligonucleosome substrate
# Sequence of EZH2 (rPRC2) (Q15910 whole entry): as the sequence (Q15910 whole entry Y641N) above, with N641Y counted along it
# Sequence of EZH2 (rPRC2) (O75530 whole entry partner): as the sequence (O75530 whole entry partner) above
# Sequence of EZH2 (rPRC2) (Q15022 whole entry partner): as the sequence (Q15022 whole entry partner) above
# [2] = Y641N EZH2 IC50, Y641N mutant EZH2, H3K27Me2 oligonucleosome substrate
# [3] = EZH2 IC50, wild-type EZH2 (rPRC2)
# [4] = Y641N mutant EZH2, H3K27Me2 oligonucleosome substrate, read-out: Y641N EZH2 IC50
# [5] = wild-type EZH2 (rPRC2), read-out: EZH2 IC50
Compound,EC50 [1] [nM],IC50 (Y641N EZH2; [2]) [nM],IC50 (EZH2 (rPRC2); [3]) [nM],other results
"COc1cc(C)[nH]c(=O)c1CNC(=O)c1c(C)n(C(C)C2CCN(CC(F)F)CC2)c2ccccc12 (single isomer, unassigned) [Compound 362, (R or S)-1-(1-(1-(2,2-difluoroethyl)piperidin-4-yl)ethyl)-N-((4-methoxy-6-methyl-2-oxo-1,2-dihydropyridin-3-yl)methyl)-2-methyl-1H-indole-3-carboxamide]",< 400,< 100,< 100,
"COc1cc(C)[nH]c(=O)c1CNC(=O)c1c(C)n(C(C)C2CCN(C(=O)C(C)C)CC2)c2ccccc12 (single isomer, unassigned) [Compound 342, (R or S)-1-(1-(1-isobulyrylpiperidin-4-yl)ethyl)-N-((4-methoxy-6-methyl-2-oxo-1,2-dihydropyridin-3-yl)methyl)-2-methyl-1H-indole-3-carboxamide]",< 400,,,
"COc1cc(C)[nH]c(=O)c1CNC(=O)c1c(C)n(C(C)C2CCN(C(=O)OC(C)C)CC2)c2ccccc12 (single isomer, unassigned) [Compound 346, (R or S)-isopropyl 4-(1-(3-((4-methoxy-6-methyl-2-oxo-1,2-dihydropyridin-3-yl)methylcarbamoyl)-2-methyl-1H-indol-1-yl)ethyl)piperidine-1-carboxylate]",< 400,< 100,< 100,
"Cc1cc(OC(F)F)c(CNC(=O)c2c(C)n(C(C)C3CCN(S(C)(=O)=O)CC3)c3ccccc23)c(=O)[nH]1 (single isomer, unassigned) [Compound 344, (R or S)-N((4-(difluoromethoxy)-6-methyl-2-oxo-1,2-dihydropyridin-3-yl)methyl)-2-methy1-1-(1-(1-(methylsulfonyl)piperidin-4-yl)ethyl)-1H-indole-3-carboxamide]",< 400,,,
"COc1cc(C)[nH]c(=O)c1CNC(=O)c1c(C)n(C(C)C2CCN(C(=O)OCC(C)C)CC2)c2ccccc12 (single isomer, unassigned) [Compound 357, (R or S)-isobutyl 4-(1-(3-(((4-methoxy-6-methyl-2-oxo-1,2-dihydropyridin-3-yl)methyl)carbamoyl)-2-methyl-1 H-indol-1-yl)ethyl)piperidine-1-carboxylate]",< 400,< 100,< 100,
"COCCN1CCC(C(C)n2c(C)c(C(=O)NCc3c(OC)cc(C)[nH]c3=O)c3ccccc32)CC1 (single isomer, unassigned) [Compound 359, (R or S)-N-((4-methoxy-6-methyl-2-oxo-1,2-dihysropyridin-3-yl)methyl)-1-(1-(1-(2-methoxyethyl)piperidin-4-yl)ethyl)-2-methyl-1 H-indole-3-carboxamide]",400 to 2000,,,
"COc1cc(C)[nH]c(=O)c1CNC(=O)c1c(C)n(C(C)C2CCN(C(=O)OC(C)(C)C)CC2)c2ncncc12 (centres unmarked) [Compound 332, tert-butyl 4-(1-(5-(((4-methoxy-6-methyl-2-oxo-1,2-dihydropyridin-3-yl)methyl)carbamoyl)-6-methyl-7H-pyrrolo[2,3-d]pyrimidin-7-yl)ethyl)piperidine-1-carboxylate]",400 to 2000,,,IC50 (Y641N EZH2; [4]): < 100 nM; IC50 (EZH2 (rPRC2); [5]): < 100 nM
"COc1cc(C)[nH]c(=O)c1CNC(=O)c1c(C)n(C(C)C2CCN(CCF)CC2)c2ccccc12 (single isomer, unassigned) [Compound 356, (R or S)-1-(1-(1-(2-fluoroethyl)piperidin-4-yl)ethyl)-N-((4-methoxy-6-methyl-2-oxo-1,2-dihydropyridin-3-yl)methyl-2-methyl-1H-indole-3-carboxamide]",< 400,< 100,< 100,
"COc1cc(C)[nH]c(=O)c1CNC(=O)c1c(C)n(C(C)C2CCN(c3ccccn3)CC2)c2ccccc12 (single isomer, unassigned) [Compound 373]",< 400,< 100,< 100,
"COc1cc(C)[nH]c(=O)c1CNC(=O)c1c(C)n(C(C)C2CCC(S(=O)(=O)C(C)C)CC2)c2ccccc12 (single isomer, unassigned) [Compound 355, (R or S)-1-(1-(4-(isopropylsulfonyl)cyclohexyl)ethyl)-N-((4-methoxy-6-methyl-2-oxo-1,2-dihydropyridin-3-yl)methyl)-2-methyl-1 H-indole-3-carboxamide]",< 400,< 100,< 100,
COc1cc(C)[nH]c(=O)c1CNC(=O)c1c(C)n(C(C)C2CCN(S(C)(=O)=O)CC2)c2ncncc12 (centres unmarked) [Compound 370],,,,H3K27me3_Alpha_HeLa_ (EC50) [1]: *(3.33 μM); IC50 (Y641N EZH2; [4]): < 100 nM; IC50 (EZH2 (rPRC2); [5]): < 100 nM
"COc1cc(C)[nH]c(=O)c1CNC(=O)c1c(C)n(C(C)C2CCN(C(=O)C(C)(C)O)CC2)c2ccccc12 (single isomer, unassigned) [Compound 337, (R or S)-1-(1-(1-(2-hydroxy-2-methylpropanoyl)piperidin-4-yl)ethyl)-N-((4-methoxy-6-methyl-2-oxo-1,2-dihydropyridin-3-yl)methyl)-2-methyl-IH-indole-3-carboxamide]",< 400,,,
"Cc1cc(C)c(CNC(=O)c2c(C)n(C(C)C3CCN(C4COC4)CC3)c3ccccc23)c(=O)[nH]1 (single isomer, unassigned) [Compound 375, (R or S)-N-((4,6-dimethyl-2-oxo-1,2-dihydropyridin-3-yl)methyl)-2-methyl-1-(1-(1-(oxctan-3-yl)piperidin-4-yl)ethyl)-1 H-indole-3-carboxamide]",< 400,,,
"CCc1cc(C)[nH]c(=O)c1CNC(=O)c1c(C)n(C(C)C2CCN(C)CC2)c2ccccc12 (single isomer, unassigned) [Compound 366, (R or S)-N-((4-ethyl-6-methyl-2-oxo-1,2-dihydropyridin-3-yl)methyl)-2-methyl-1-(1-(1-methylpiperidin-4-yl)ethyl-1 H-indole-3-carboxamide]",400 to 2000,,,
"COc1cc(C)[nH]c(=O)c1CNC(=O)c1c(C)n(C(C)C2CCN(CC(F)(F)F)CC2)c2ccccc12 (single isomer, unassigned) [Compound 365, (R or S)-N-((4-methoxy-6-methyl-2-oxo-1,2-dihydropyridin-3-yl)methyl)-2-methyl-1-(1-(1-(2,2,2-trifluoroethyl)piperidin-4-yl)ethyl)-1H-indole-3-carboxamide]",< 400,,,
"Cc1cc(C)c(CNC(=O)c2c(C)n(C(C)C3CCN(C)CC3)c3ccccc23)c(=O)[nH]1 (single isomer, unassigned) [Compound 367, (R or S)-N-((4,6-dimethyl-2-oxo-1,2-dihydropyridin-3-yl)methyl)-2-methyl-1-(1-(1-methylpiperidin-4-yl)ethyl)-1 H-indole-3-carboxamide]",< 400,,,
"COc1cc(C)[nH]c(=O)c1CNC(=O)c1c(C)n(C(C)C2CCN(C3COC3)CC2)c2ccccc12 (single isomer, unassigned) [Compound 341, (R or S)-N-((4-methoxy-6-methyl-2-oxo-1,2dihydropyridin-3-yl)methyl)-2-methyl-1-(1-(1-(oxctan-3-yl)piperidin-4-yl)ethyl)-1 H-indole-3-carboxamide]",< 400,,,
"COc1cc(C)[nH]c(=O)c1CNC(=O)c1c(C)n(C(C)C2CCN(S(C)(=O)=O)CC2)c2ccccc12 (single isomer, unassigned) [Compound 336, (R or S)-N-((4-methoxy-6-methyl-2-oxo-1,2-dihydropyridin-3-methyl)-2 methyl-1-(1-(1-(methylsulfonyl)piperidin-4-yl)ethyl)-1 H-indole-3-carboxamide]",< 400,,,
"CCS(=O)(=O)N1CCC(C(C)n2c(C)c(C(=O)NCc3c(C)cc(C)[nH]c3=O)c3ccccc32)CC1 (single isomer, unassigned) [Compound 368, (R or S)-N-(4,6-dimethyl-2-oxo-1,2-dihydropyridin-3-yl)methyl)-1-(1-(1-(ethylsulfonyl)piperidin-4-yl)ethyl)-2-methyl-1 H-indole-3-carboxamide]",< 400,,,
